No end group written: not given here. *: point of attachment. Octanoyl = CCCCCCCC(=O)*
How the values were obtained:
[1] = system: wild-type ghrelin receptor; assay: IP1 accumulation, wild-type ghrelin receptor, HEK293 cells, 37 °C 2 h, Cisbio IP1 kit; type: cell-based, human; settings: WT
Protocol: Fig. 1 Overall structures of ghrelin receptors bound to inverse agonist and agonist. a Dose-dependent responses of endogenous agonist ghrelin, inverse agonist PF-05190457 and antagonist compound 21 containing 10 nM ghrelin peptide at wild-type ghrelin receptor measured by cellular IP1 accumulation assays. […] Data represent the mean ± SEM from n = 3 biologically independent experiments performed in triplicate. b View from within the plane of the membrane. The inverse agonist-bound ghrelin receptor is represented as a wheat cartoon, and PF-05190457 is shown as a marine blue sphere. Cryo-EM structure of the agonist ghrelin-bound ghrelin receptor-Gαo1-scFv16 complex. c Ghrelin peptides and receptors are shown as deep salmon spheres and aquamarine cartoons, respectively. The Go heterotrimer and scFv16 are shown in the gray cartoon. d View from the extracellular side of the membrane. […]
IP accumulation was measured using Cisbio IP1 assay kit (Cisbio, 62IPAPEB), which has been previously described. […] IP1 was quantified using Synergy H1 microplate reader (BioTek) with excitation at 320 nm, emission at 620 nm, and 665 nm. The accumulation of IP1 was calculated according to a standard dose–response curve in GraphPad Prism 8 (GraphPad Software). […]

ghrelin receptor mutants = assay: IP1 accumulation, ghrelin receptor mutants, HEK293 cells, 37 °C 2 h (compound 21 containing 10 nM ghrelin); type: cell-based, human; settings: for ghrelin-induced activation, effect of mutation: peer review file
From the text: Fig. 2 The binding mode of PF-05190457 with the ghrelin receptor. a The detailed binding mode of PF-05190457 in the orthosteric pocket of the ghrelin receptor. The |Fo| − |Fc| omit map (contoured at 3.0 σ) for PF-05190457 (shown as marine blue sticks). […] The diazaspiro core is shown in pink, arm-1 is sky blue, and arm-2 is light green. The red solid lines indicate hydrogen bonds involved in interactions with the side chains of key residues. d–f Key residues of the ghrelin receptor (wheat sticks) involved in ligand binding in cavity III (d), cavity I (e), and cavity IV (f). The binding pocket is highly hydrophobic, and the particular polar network is shown as black dotted lines. g IP1 accumulation induced by the inverse agonist PF-05190457 and antagonist compound 21. Bars represent the difference in the calculated potency (pIC50) of the inverse agonist for mutations relative to the WT ghrelin receptor. Data are colored according to extent of effect. nd not detected, **P < 0.01, ***P < 0.001 (one-way analysis of variance (ANOVA) followed by Dunnett’s test, compared with the response of WT, P < 0.001, P < 0.001, P < 0.001, P > 0.999, nd, nd, P = 0.05, nd, P < 0.001, P < 0.001, nd, nd, nd, nd, nd, nd, P < 0.01, P = 0.264, P < 0.001, nd, P < 0.001, nd from left to right). Data represent the mean ± SEM from n = 3 biologically independent experiments performed in triplicate. […] The salt bridges between E124^3.33 and R283^6.55 as well as between R102^2.63 and Q120^3.29, are broken upon PF-05190457 binding.
To measure the activity of inverse agonist PF-05190457 (Tocris, Cat. No. 6350), we carried out IP1 accumulation assays for ghrelin receptor independent of agonist. The agonist ghrelin and antagonist compound 21 were also performed as the control. The cDNA of ghrelin receptor subcloned into pcDNA3.1(+) expression vector with a HA signal sequence followed by a Flag tag at the N-terminus. Point mutations used in our study were generated by using Q5 site-Directed Mutagenesis kit (NEB). All the constructs were verified by sequencing. The constructs were expressed in HEK293 cells using PEI transfection reagent (YEASEN, 40815es03) according to the manufacturer’s instruction. Cells were harvested 48 h post transfection.
IP accumulation was measured using Cisbio IP1 assay kit (Cisbio, 62IPAPEB), which has been previously described. In brief, the harvested cells were distributed in a low volume 96-well dish and stimulated with increased concentration of inverse agonist PF-05190457, agonist ghrelin peptide or antagonist compound 21 containing 10 nM ghrelin peptide at 37 °C for 2 h. After that, d2-labeled IP1 and cryptate-labeled anti-IP1 monoclonal antibody dissolved in Lysis Buffer were added to the wells. After 1 h incubation at room temperature. IP1 was quantified using Synergy H1 microplate reader (BioTek) with excitation at 320 nm, emission at 620 nm, and 665 nm. The accumulation of IP1 was calculated according to a standard dose–response curve in GraphPad Prism 8 (GraphPad Software). Data were represented as the mean ± SEM from three independent experiments and all experiments were repeated at least three times.
Supplementary Fig. 6: IP1 accumulation assay.
(a) Expression level of the ghrelin receptor mutants. Data represent the mean ± SEM from three independent experiments performed in triplicate. ns, not significant, **p < 0.01, ***p < 0.001 (one-way analysis of variance [ANOVA] followed by Dunnett’s test, compared with the response […]
0.001, p=0.996, p=0.008, p=0.999 from left to right). Data represent the mean ± SEM from n=3 biologically independent experiments performed in triplicate.
(b) IP1 accumulation measurement induced by inverse agonist PF-05190457(left), agonist ghrelin (middle) and antagonist compound 21 (right). ns, not significant; nd, not detected; ***p < 0.001 […]
< 0.001, nd, nd, nd, p=0.264, nd, nd from left to right). Data represent the mean ± SEM from […]

Question: Which results are given for “ghrelin: endogenous agonist, 28-amino acid peptide with octanoyl modification at the side chain of Ser+3 (GSS(Octanoyl)FLSPEHQRVQQRKESKKPPAKLQPR; UniProt Q9UBU3 24-51, looked up)”?
Answer: activation potency [1]: high activation potency as a full agonist; ghrelin-induced activation, effect of mutation (ghrelin receptor mutants; D99^2.60 mutant): decreased potency of ghrelin induced activation; potency, effect of mutation (ghrelin receptor mutants; F279^6.51A): impaired the potency; potency, effect of mutation (ghrelin receptor mutants; F312^7.42A): impaired the potency; ghrelin-induced activation, effect of mutation (ghrelin receptor mutants; R102^2.63 mutant): decreased potency of ghrelin induced activation; potency, effect of mutation (ghrelin receptor mutants; W276^6.48A): impaired the potency
